Holding throughout (format): cell-based
In assay [1] the test system is HTT. In words: Splicing assay (RT-qPCR on cell lysates) monitoring HTT splice variants: AJ and CJ mRNA. To be noted: concentration having 50% response. How it is done:
Example 69: Exemplary Splicing Assay for Monitoring Expression Levels of Splice Variants
(§1) To set up 10 uL RT-qPCR reactions, cell lysates were transferred to 384-well qPCR plates containing the master mix according to the table below. The plates were sealed, gently vortexed, and spun down before the run. The volumes were adjusted accordingly in some instances where the reaction was carried in 20 uL. The table below summarizes the components of the RT-qPCR reactions:
(§2) The RT-qPCR reaction was performed using a QuantStudio (ThermoFisher) under the following fast cycling conditions. All samples and standards were analyzed at least in duplicate. In some instances, bulk room temperature (RT) step of 5-10 minutes was completed for all plates before proceeding with qPCR. The table below summarizes the PCR cycle:
(§3) The data analysis was performed by first determining the ΔCt vs the housekeeper gene. This ΔCt was then normalized against the DMSO control (ΔΔCt) and converted to RQ (relative quantification) using the 2^(−ΔΔCt) equation. The RQ were then converted to a percentage response by arbitrarily setting an assay window of 3.5 ΔCt for HTT-CJ and an assay window of 9 ΔCt for HTT-AJ. […] The percentage response was then fitted to the 4 parametric logistic equation to evaluate the concentration dependence of compound treatment. The increase in AJ mRNA is reported as AC50 (compound concentration having 50% response in AJ increase) while the decrease in CJ mRNA levels is reported as IC50 (compound concentration having 50% response in CJ decrease).

For assay [2], the system named is SMN2. The assay can be described thus: Gene panel canonical junction qPCR assay, SMN2 CJ mRNA. The following applies: Table 9, CJ mRNA decrease, read-out: SMN2 IC50 (decrease in CJ mRNA levels). How it is done:
as §1, §2, §3
(§4) Additional studies were carried out for a larger panel of genes using the protocol provided above. The junction between flanking upstream and downstream exons was used to design canonical junction qPCR assays. At least one of the forward primer, reverse primer or the CY5-labeled 5′ nuclease probe (with 3′ quencher such as ZEN/Iowa Black FQ) was designed to overlap with the exon junction to capture the CJ mRNA transcript. BLAST was used to confirm the specificity of the probeset and parameters such as melting temperature, GC content, amplicon size, and primer dimer formation are considered during their design. Data for the decrease in CJ mRNA levels for three exemplary genes (HTT, SMN2, and Target C) analyzed in this panel are reported as IC50 (compound concentration having 50% response in CJ decrease).
(Real-time PCR tracks product formation cycle by cycle.)

Assay [3] relates to HTT. In words: Gene panel canonical junction qPCR assay, HTT CJ mRNA. The following applies: Table 9, CJ mRNA decrease, read-out: HTT IC50 (decrease in CJ mRNA levels). Here is the method:
as §1, §2, §3, §4

Assay [4] deals with Target C. In words: Gene panel canonical junction qPCR assay, Target C CJ mRNA. The following applies: Table 9, CJ mRNA decrease, read-out: Target C IC50 (decrease in CJ mRNA levels). How it is done: as §1, §2, §3, §4
[5] abbreviates: Table 8, decrease in CJ mRNA, read-out: HTT CJ AC50.
Where [6] appears, read: Table 8, increase in AJ mRNA, read-out: HTT AJ AC50.
Setting [7] is: Table 7, decrease in CJ mRNA, read-out: HTT CJ AC50.
The mark [8] stands for this setting: Table 7, increase in AJ mRNA, read-out: HTT AJ AC50.

Where two headings read alike, the source gives them in different places.

In general, AC50 refers to the concentration giving half of the maximal activity seen. As a reminder, the IC50 is the concentration at which inhibition is half-maximal. Regarding `CN(c1ccc(-c2ccc(-c3cn[nH]c3)c3ncsc23)nn1)[C@@H]1C[C@H]2CC[C@@H](C1)N2` [Compound 213, (exo)-N-methyl-N-{6-[4-(1H-pyrazol-4-yl)-1,3-benzothiazol-7-yl]pyridazin-3-yl}-8-azabicyclo[3.2.1]octan-3-amine], the AC50 in assay [1] (setting [5]) and in assay [1] (setting [6]) was below 100 nM in each case. For the same molecule, the IC50 in assay [2], in assay [3] and in assay [4] was below 100 nM in each case.
Consider `[2H]C([2H])([2H])N(c1ccc(-c2ccc(-c3cn[nH]c3)c3ncsc23)nn1)C1CCNCC1` [Compound 223, N-(D3)methyl-N-(piperidin-4-yl)-6-[4-(1H-pyrazol-4-yl)-1,3-benzothiazol-7-yl] pyridazin-3-amine], for which the AC50 in assay [1] (setting [5]) and in assay [1] (setting [6]) was 1000 to 10000 nM throughout. The values for the IC50 in assay [2], in assay [3] and in assay [4] were 100 to 1000 nM, 1000 to 10000 nM and 1000 to 10000 nM, respectively.
Consider `CN(c1ccc(-c2ccc(-c3cnn(C)c(=O)c3)c3scnc23)nn1)C1CC(C)(C)NC(C)(C)C1` [Compound 211], for which the IC50 in assay [2], in assay [3] and in assay [4] was 100 to 1000 nM in each case.
Consider `CN(c1ccc(-c2ccc(-n3cccn3)c3cn[nH]c23)nn1)C1CCNCC1` [Compound 264], for which the AC50 in assay [1] (setting [5]) and in assay [1] (setting [6]) was above 10000 nM each time.
Consider `CN(c1ccc(-c2ccc(-c3cn[nH]c3)c3nn[nH]c23)nn1)[C@@H]1C[C@H]2CC[C@@H](C1)N2` [Compound 118, (1R,3S,5S)—N-methyl-N-[6-[7-(1H-pyrazol-4-yl)-3H-1,2,3-benzotriazol-4-yl]pyridazin-3-yl]-8-azabicyclo[3.2.1]octan-3-amine], for which the AC50 in assay [1] (setting [7]) and in assay [1] (setting [8]) was 500 to 5000 nM throughout.
As for `c1n[nH]cc1-c1ccc(-c2ccc(N3CCC4(CC3)CNC4)nn2)c2[nH]ncc12` [Compound 238], the AC50 in assay [1] (setting [5]) and in assay [1] (setting [6]) was above 10000 nM in each case.
Consider `CN(c1ccc(-c2ccc(-c3cnn(C)c3)c3cn[nH]c23)nn1)C1CCNCC1` [Compound 242, N-methyl-6-[4-(1-methylpyrazol-4-yl)-1H-indazol-7-yl]-N-(piperidin-4-yl)pyridazin-3-amine;trifluoroacetic acid], for which the AC50 in assay [1] (setting [5]) and in assay [1] (setting [6]) was above 10000 nM each time.
In the case of `CN(c1ccc(-c2ccc(-c3ccn(C)c(=O)c3)c3ncsc23)nn1)C1CC(C)(C)NC(C)(C)C1` [Compound 279], the AC50 in assay [1] (setting [5]) and in assay [1] (setting [6]) was 1000 to 10000 nM each time.
Consider `CN(c1ccc(-c2ccc(-c3cn[nH]c3)c3cn[nH]c23)nn1)[C@H]1C[C@]2(C)CC[C@](C)(C1)N2` [Compound 146, N,1,5-trimethyl-N-[6-[4-(1H-pyrazol-4-yl)-1H-indazol-7-yl]pyridazin-3-yl]-8-azabicyclo[3.2.1]octan-3-amine], for which the AC50 in assay [1] (setting [7]) and in assay [1] (setting [8]) was below 500 nM each time.
With `CN(c1ccc(-c2ccc(-n3cccn3)c3cc[nH]c23)nn1)[C@@H]1C[C@H]2CC[C@@H](C1)N2` [Compound 113, (1R,3R,5S)—N-methyl-N-[6-[4-(pyrazol-1-yl)-1H-indol-7-yl]pyridazin-3-yl]-8-azabicyclo[3.2.1]octan-3-amine], the results for the AC50 in assay [1] (setting [7]) and in assay [1] (setting [8]) were 500 to 5000 nM and above 5000 nM, respectively.
Turning to `c1n[nH]cc1-c1ccc(-c2ccc(N3CCC4(CCCNC4)C3)nn2)c2[nH]ncc12` (stereo not drawn) [Compound 252], the AC50 in assay [1] (setting [5]) and in assay [1] (setting [6]) was above 10000 nM in each case.
For the molecule `c1nc2c(-c3cn[nH]c3)ccc(-c3ccc(N4CCC5(CCN5)C4)nn3)c2s1` (stereo not drawn) [Compound 265, 7-(6-{1,6-diazaspiro[3.4]octan-6-yl}pyridazin-3-yl)-4-(1H-pyrazol-4-yl)-1,3-benzothiazole], the AC50 in assay [1] (setting [5]) and in assay [1] (setting [6]) was above 10000 nM throughout.
Consider `c1cc(-c2ccc(N3CCCN3)c3cn[nH]c23)nnc1N[C@@H]1C[C@H]2CC[C@@H](C1)N2` [Compound 278], for which the figures for the AC50 in assay [1] (setting [5]) and in assay [1] (setting [6]) were below 100 nM and 100 to 1000 nM, respectively.
